± gives the standard deviation of the averaged measurements.
Assays:
Conditions in all cases: treatment time: 3 days
[1] = tested on: UT-SCC-44; experiment: relative IC50 (midpoint of the fitted curve; maximal inhibition may be below 50%); higher = less potent
In short: (§1)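 HPV-negative HNSCC cell lines were plated at 500 cells/well in 384-well plates, either on plastic, on wells coated with Matrigel or Myogel (500 µg/mL), or embedded in Matrigel or Myogel plus rat collagen I. Each compound was tested at five 10-fold concentrations over 3 days. Viability was measured by CellTiter-Glo 2.0 luminescence, and IC50, maximal inhibition and drug sensitivity score came from percent-inhibition dose–response curves fitted in the FIMM pipeline after normalisation to vehicle (0.1% DMSO) and cell-killing control wells.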

[2] = tested on: UT-SCC-14; experiment: as above
In short: as §1

[3] = tested on: UT-SCC-73; experiment: as above
In short: as §1

[4] = tested on: UT-SCC-42B; experiment: as above
In short: as §1

[5] = tested on: UT-SCC-81; experiment: as above
In short: as §1

[6] = tested on: UT-SCC-42A; experiment: as above
In short: as §1

[7] = tested on: UT-SCC-44; experiment: drug sensitivity score (DSS); higher = more sensitive; extreme values may be limits of the assay
In short: as §1

[8] = tested on: UT-SCC-106A; experiment: as above
In short: as §1

[9] = tested on: UT-SCC-14; experiment: as above
In short: as §1

[10] = tested on: UT-SCC-73; experiment: as above
In short: as §1

[11] = tested on: UT-SCC-28; experiment: as above
In short: as §1

[12] = tested on: UT-SCC-40; experiment: as above
In short: as §1

[13] = tested on: UT-SCC-42B; experiment: as above
In short: as §1

[14] = tested on: UT-SCC-24B; experiment: as above
In short: as §1

[15] = tested on: UT-SCC-8; experiment: as above
In short: as §1

[16] = tested on: UT-SCC-81; experiment: as above
In short: as §1

[17] = tested on: UT-SCC-42A; experiment: as above
In short: as §1

[18] = tested on: UT-SCC-24A; experiment: relative IC50 (midpoint of the fitted curve; maximal inhibition may be below 50%); higher = less potent
Procedure: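 HNSCC cell lines (500 cells/well, 384-well) were cultured on plastic, on top of (2D) or embedded (3D) in Matrigel or human leiomyoma matrix Myogel (500 ug/mL; Myogel 3D mixed with rat collagen I). Cells were treated for 3 days with 5 ten-fold concentrations of each drug, and viability was read by CellTiter-Glo. Viability was normalised to DMSO (0% inhibition) and 100 uM benzethonium chloride (100% inhibition) controls and fitted with the FIMM DSRT pipeline to give IC50 (nM), maximal % inhibition and the drug sensitivity score (DSS). Suffixes _1/_2/_3 on drug names are replicates.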

[19] = culture condition: embedded in Matrigel
[20] = culture condition: embedded in Myogel + collagen I
[21] = culture condition: on top of Myogel
[22] = culture condition: plastic 2D (no matrix)
[23] = culture condition: on top of Matrigel

CO[C@H]1C[C@@H]2CC[C@@H](C)[C@@](O)(O2)C(=O)C(=O)N2CCCC[C@H]2C(=O)O[C@H]([C@H](C)C[C@@H]2CC[C@@H](OP(C)(C)=O)[C@H](OC)C2)CC(=O)[C@H](C)/C=C(\C)[C@@H](O)[C@@H](OC)C(=O)[C@H](C)C[C@H](C)/C=C/C=C/C=C/1C [Ridaforolimus]
relative IC50 [1, 19]: 0.909 nM
relative IC50 [1, 20]: 4.16 nM
relative IC50 [1, 21]: 0.271 nM
relative IC50 [2, 19]: 0.761 nM
relative IC50 [2, 20]: 0.711 nM
relative IC50 [2, 21]: 0.632 nM
relative IC50 [2, 22]: 0.876 nM
relative IC50 [3, 23]: 0.734 nM
relative IC50 [3, 21]: 1.48 nM
relative IC50 [3, 22]: 3 nM
relative IC50 [4, 21]: 17.4 nM
relative IC50 [5, 20]: 2.46 nM
relative IC50 [5, 23]: 1.38 nM
relative IC50 [6, 19]: 6.44 nM
relative IC50 [6, 20]: 6.31 nM
relative IC50 [6, 23]: 1.65 nM
relative IC50 [6, 22]: 4.54 nM
drug sensitivity score [7, 19]: 6.7 ± 3.6 DSS
drug sensitivity score [7, 20]: 6.23 ± 0.99 DSS
drug sensitivity score [7, 23]: 10.7 ± 2.2 DSS
drug sensitivity score [7, 21]: 11.2 ± 1.4 DSS
drug sensitivity score [7, 22]: 9.63 ± 3 DSS
drug sensitivity score [8, 19]: 4.2 ± 1.4 DSS
drug sensitivity score [8, 20]: 2.63 ± 0.21 DSS
drug sensitivity score [8, 23]: 6.4 ± 3.5 DSS
drug sensitivity score [8, 21]: 2.9 ± 1.1 DSS
drug sensitivity score [8, 22]: 7.57 ± 1.7 DSS
drug sensitivity score [9, 19]: 13.8 ± 3.1 DSS
drug sensitivity score [9, 20]: 15.2 ± 1.2 DSS
drug sensitivity score [9, 23]: 12.9 ± 1.5 DSS
drug sensitivity score [9, 21]: 13 ± 2.4 DSS
drug sensitivity score [9, 22]: 11.9 ± 2.8 DSS
drug sensitivity score [10, 19]: 7.23 ± 3 DSS
drug sensitivity score [10, 20]: 8.57 ± 6 DSS
drug sensitivity score [10, 23]: 6.9 ± 1.3 DSS
drug sensitivity score [10, 21]: 8 ± 0.79 DSS
drug sensitivity score [10, 22]: 4.93 ± 0.94 DSS
drug sensitivity score [11, 19]: 4.87 ± 2.8 DSS
drug sensitivity score [11, 20]: 4.37 ± 4 DSS
drug sensitivity score [11, 23]: 6.87 ± 2.6 DSS
drug sensitivity score [11, 22]: 6.37 ± 3.5 DSS
drug sensitivity score [12, 19]: 4.97 ± 2.8 DSS
drug sensitivity score [12, 20]: 7.83 ± 3.9 DSS
drug sensitivity score [12, 23]: 4.8 ± 0.78 DSS
drug sensitivity score [12, 21]: 4.23 ± 0.46 DSS
drug sensitivity score [12, 22]: 3.77 ± 0.47 DSS
drug sensitivity score [13, 19]: 0.8 ± 0.76 DSS
drug sensitivity score [13, 23]: 0.233 ± 0.4 DSS
drug sensitivity score [13, 21]: 0.367 ± 0.4 DSS
drug sensitivity score [13, 22]: 0.4 ± 0.36 DSS
drug sensitivity score [14, 19]: 2.9 ± 2.8 DSS
drug sensitivity score [14, 20]: 7.87 ± 0.8 DSS
drug sensitivity score [14, 23]: 3.8 ± 0.66 DSS
drug sensitivity score [14, 21]: 4.63 ± 1.4 DSS
drug sensitivity score [14, 22]: 5.37 ± 2 DSS
drug sensitivity score [15, 19]: 9.67 ± 4 DSS
drug sensitivity score [15, 20]: 4.03 ± 1 DSS
drug sensitivity score [15, 23]: 9.27 ± 3.7 DSS
drug sensitivity score [15, 21]: 12.5 ± 4.2 DSS
drug sensitivity score [15, 22]: 10.2 ± 3.6 DSS
drug sensitivity score [16, 19]: 8.6 ± 4.5 DSS
drug sensitivity score [16, 20]: 11.8 ± 3.1 DSS
drug sensitivity score [16, 23]: 9.37 ± 2.3 DSS
drug sensitivity score [16, 21]: 10.9 ± 4 DSS
drug sensitivity score [16, 22]: 8.77 ± 5 DSS
drug sensitivity score [17, 19]: 3.43 ± 0.55 DSS
drug sensitivity score [17, 20]: 5.73 ± 1.1 DSS
drug sensitivity score [17, 23]: 6.43 ± 1.4 DSS
drug sensitivity score [17, 21]: 5.2 ± 1.3 DSS
drug sensitivity score [17, 22]: 5.6 ± 2.1 DSS
relative IC50 [18, 20]: 2.61 nM
relative IC50 [18, 21]: 3.5 nM
relative IC50 [18, 22]: 1.98 nM

Cn1cnc2c(F)c(Nc3ccc(Br)cc3Cl)c(C(=O)NOCCO)cc21 [Selumetinib]
relative IC50 [1, 19]: 95.2 nM
relative IC50 [1, 23]: 108 nM
relative IC50 [1, 21]: 151 nM
relative IC50 [2, 19]: 74.2 nM
relative IC50 [2, 23]: 279 nM
relative IC50 [3, 19]: 80 nM
relative IC50 [3, 20]: 78.3 nM
relative IC50 [3, 23]: 83.2 nM
relative IC50 [3, 21]: 122 nM
relative IC50 [3, 22]: 117 nM
relative IC50 [4, 19]: 86.8 nM
relative IC50 [4, 23]: 266 nM
relative IC50 [4, 21]: 268 nM
relative IC50 [5, 19]: 53.5 nM
relative IC50 [5, 23]: 95.3 nM
relative IC50 [6, 20]: 263 nM
relative IC50 [6, 21]: 111 nM
drug sensitivity score [7, 19]: 15.8 ± 5.2 DSS
drug sensitivity score [7, 20]: 4.83 ± 4.2 DSS
drug sensitivity score [7, 23]: 12.3 ± 0.94 DSS
drug sensitivity score [7, 21]: 8.17 ± 1.2 DSS
drug sensitivity score [7, 22]: 7.8 ± 3.5 DSS
drug sensitivity score [8, 19]: 14.6 ± 2 DSS
drug sensitivity score [8, 20]: 0.867 ± 1.5 DSS
drug sensitivity score [8, 23]: 16.1 ± 0.75 DSS
drug sensitivity score [8, 21]: 1.03 ± 1.7 DSS
drug sensitivity score [8, 22]: 15.7 ± 2.3 DSS
drug sensitivity score [9, 19]: 7.13 ± 6.1 DSS
drug sensitivity score [9, 20]: 5.17 ± 3.2 DSS
drug sensitivity score [9, 23]: 7.17 ± 3 DSS
drug sensitivity score [9, 21]: 3.5 ± 3.6 DSS
drug sensitivity score [9, 22]: 0.833 ± 1.4 DSS
drug sensitivity score [10, 19]: 21 ± 2.8 DSS
drug sensitivity score [10, 20]: 13.5 ± 3.5 DSS
drug sensitivity score [10, 23]: 20.2 ± 2.6 DSS
drug sensitivity score [10, 21]: 15.2 ± 1.1 DSS
drug sensitivity score [10, 22]: 17.9 ± 1.4 DSS
drug sensitivity score [11, 19]: 8.07 ± 4.3 DSS
drug sensitivity score [11, 20]: 4.4 ± 3.9 DSS
drug sensitivity score [11, 23]: 6.2 ± 5.5 DSS
drug sensitivity score [11, 22]: 3.8 ± 3.9 DSS
drug sensitivity score [12, 19]: 22.6 ± 0.71 DSS
drug sensitivity score [12, 20]: 17.6 ± 0.8 DSS
drug sensitivity score [12, 23]: 20.7 ± 0.92 DSS
drug sensitivity score [12, 21]: 11.2 ± 2.4 DSS
drug sensitivity score [12, 22]: 12.6 ± 2.5 DSS
drug sensitivity score [13, 19]: 16.5 ± 4.6 DSS
drug sensitivity score [13, 23]: 8.67 ± 2.3 DSS
drug sensitivity score [13, 21]: 2.13 ± 0.76 DSS
drug sensitivity score [13, 22]: 2.33 ± 2 DSS
drug sensitivity score [14, 19]: 18.9 ± 1.8 DSS
drug sensitivity score [14, 20]: 18.2 ± 1.7 DSS
drug sensitivity score [14, 23]: 18.6 ± 0.25 DSS
drug sensitivity score [14, 21]: 17.6 ± 0.75 DSS
drug sensitivity score [14, 22]: 21 ± 0.4 DSS
drug sensitivity score [15, 19]: 10.1 ± 1.3 DSS
drug sensitivity score [15, 20]: 1.37 ± 2.4 DSS
drug sensitivity score [15, 23]: 9.63 ± 0.58 DSS
drug sensitivity score [15, 21]: 10.3 ± 1.5 DSS
drug sensitivity score [15, 22]: 5.63 ± 2.3 DSS
drug sensitivity score [16, 19]: 24.4 ± 0.94 DSS
drug sensitivity score [16, 20]: 7.33 ± 6.3 DSS
drug sensitivity score [16, 23]: 19.9 ± 0.72 DSS
drug sensitivity score [16, 21]: 9.93 ± 3.6 DSS
drug sensitivity score [16, 22]: 7.87 ± 8 DSS
drug sensitivity score [17, 19]: 10.9 ± 4.8 DSS
drug sensitivity score [17, 20]: 4.23 ± 4.5 DSS
drug sensitivity score [17, 23]: 14.4 ± 5 DSS
drug sensitivity score [17, 21]: 9.23 ± 2 DSS
drug sensitivity score [17, 22]: 10.8 ± 3 DSS
relative IC50 [18, 21]: 137 nM
relative IC50 [18, 22]: 87.9 nM
